Like-named read-outs stand apart in the source and are kept apart here. Positions of bridges follow the written chain, without caps; N, C: chain ends. Non-standard residues stand in square brackets, D forms with d. Residues, ends and D or L forms follow the SMILES beside them. Groups on a side chain read outwards from the residue. Chains are numbered I, II in the order given. *: point of attachment. DM1Mal(CH2)2CO = COc1cc2cc(c1Cl)N(C)C(=O)C[C@H](OC(=O)[C@H](C)N(C)C(=O)CCSC1CC(=O)N(CCC(=O)*)C1=O)[C@]1(C)O[C@H]1[C@H](C)[C@@H]1C[C@@](O)(NC(=O)O1)[C@H](OC)/C=C/C=C(\C)C2; Camptothecin(20S-OCO) = CC[C@@]1(OC(=O)*)C(=O)OCc2c1cc1n(c2=O)Cc2cc3ccccc3nc2-1; X1 = CC[C@@]1(O*)C(=O)OCc2c1cc1n(c2=O)Cc2cc3ccccc3nc2-1; X2 = CC(=O)N[C@@H](CSC1CC(=O)N(CCC(=O)*)C1=O)C(=O)O; Dolaproine = CO[C@@H]([C@@H]1CCCN1)[C@@H](C)C(=O)O; Dil = CC[C@H](C)[C@H](NC)[C@@H](CC(=O)O)OC; NMe2Val = CC(C)[C@@H](C(=O)*)N(C)C; PEG5 = NCCOCCOCCOCCOCCOCCC(=O)O; Cit = NC(=O)NCCC[C@H](N)C(=O)O; PEG4 = NCCOCCOCCOCCOCCC(=O)O; Dab = NCC[C@H](N)C(=O)O; Dap = NC[C@H](N)C(=O)O; Sar = CNCC(=O)O
Biological target: T1, recombinant human Cathepsin B (Homo sapiens, UniProt P07858)
T1 construct: purchased R&D Systems (Bio-Techne AG) 953-CY-010
Assay: Recombinant human Cathepsin B-induced cleavage (in vitro enzymatic cleavage assay, UHPLC-MS/MS)
Format: biochemical
Conditions: for half-life at 10 μM: human; for Ratio (T1/2 Compound/T1/2 Reference): reference Cys-MC-Val-Cit-PABC-MMAF; for cleavage rate compared to reference PABC compound (times faster): versus Cys-MC-Val-Cit-PABC-MMAF
Description: Cat B-induced cleavage of the compounds of the present invention was evaluated according to the in vitro enzymatic cleavage assay using recombinant human Cathepsin B and UHPLC-MS/MS analysis as described below.
Reference compounds Cys-MC-Val-Cit-PABC-MMAF and MMAF were used as positive controls.
The in vitro enzymatic assay was conducted at 37° C. with the test compounds at a concentration of 10 μM (2.5 μM when the test compound is an antibody-drug conjugate) in the presence of activated recombinant human Cathepsin B enzyme at 2 μg/mL in a 25 mM MES buffer pH 5.0. The enzymatic cleavage reaction was stopped for each defined time point by mixing an equal volume of acetonitrile+0.1% FA containing an internal standard (warfarine at 8 μM).
Analysis was conducted using a Waters Acquity UPLC System coupled to a Waters Xevo TQ triple quad mass spectrometer. UHPLC was conducted depending on the test compounds with a BEH C8 1.7 μm 100×2.1 mm or BEH C18 1.7 μm 50×2.1 mm or HSS T3 1.7 μm 50×2.1 mm columns heated at 45° C. or 50° C. and fitted with 2 μm insert filter pre-columns (available from Waters), and solvent systems A1 (H2O+0.1% FA) and B1 (acetonitrile+0.1% FA) at a flow rate of 0.6 mL/min and a 10-95% gradient of B1 over 1.9 min.
MS/MS was performed using electrospray ionization (ESI) interface in positive mode and specific MRM transitions for each tested compound.

[1] = pH 5, 10 μM test compound, Cathepsin B 2 μg/mL, 25 mM MES buffer pH 5.0, 37° C., read-out: T1/2 Compound
[2] = pH 5, text and figure legends, 10 μM test compound, read-out: t1/2 (Exo-Cat B-induced drug release study)
[3] = 10 μM test compound, Cathepsin B 2 μg/mL, 25 mM MES buffer pH 5.0, 37° C., read-out: T1/2 Compound

Structure (SMILES): CC[C@H](C)[C@@H]([C@@H](CC(=O)N1CCC[C@H]1[C@H](OC)[C@@H](C)C(=O)N[C@@H](Cc1ccccc1)C(=O)N[C@@H](CCCNC(=N)N)C(=O)N[C@@H](CCCCNC(=O)CCOCCOCCOCCOCCOCCNC(=O)CCN1C(=O)CC(SC[C@H](NC(C)=O)C(=O)O)C1=O)C(=O)N[C@@H](Cc1ccccc1)C(=O)O)OC)N(C)C(=O)[C@@H](NC(=O)[C@H](C(C)C)N(C)C)C(C)C (stereo partly drawn) [Compound 1, AF-Arg-Lys(PEG4-Mal-Cys-Ac)-Phe-OH] (NMe2Val-V[Dil][Dolaproine]FRK([PEG5-X2])F-OH)
- half-life at 10 μM [1]: 1.5 min
- Ratio (T1/2 Compound/T1/2 Reference): 0.12

Structure (SMILES): CC[C@H](C)[C@@H]([C@@H](CC(=O)N1CCC[C@H]1[C@H](OC)[C@@H](C)C(=O)N[C@@H](Cc1ccccc1)C(=O)N[C@@H](CCCNC(=N)N)C(=O)N[C@@H](Cc1ccccc1)C(=O)N[C@@H](CCCCNC(=O)CCOCCOCCOCCOCCNC(=O)CCN1C(=O)CC(SC[C@H](NC(C)=O)C(=O)O)C1=O)C(=O)O)OC)N(C)C(=O)[C@@H](NC(=O)[C@H](C(C)C)N(C)C)C(C)C (stereo partly drawn) [Compound 3, AF-Arg-Phe-Lys(PEG4-Mal-Cys-Ac)-OH] (NMe2Val-V[Dil][Dolaproine]FRFK([PEG4-X2])-OH)
- half-life at 10 μM [1]: 1.4 min
- Ratio (T1/2 Compound/T1/2 Reference): 0.11

Structure (SMILES): CC[C@@]1(OC(=O)CN(C)C(=O)CC[C@H](NC(=O)[C@H](CCCNC(=N)N)NC(=O)[C@H](Cc2ccccc2)NC(=O)CCOCCOCCOCCOCCOCCNC(=O)[C@@H](N)CCCNC(=N)N)C(=O)N[C@@H](Cc2ccccc2)C(=O)O)C(=O)OCc2c1cc1n(c2=O)Cc2cc3ccccc3nc2-1 [Compound 8, Arg-PEG4-Phe-Arg-Glu(Sar-OCPT)-Phe-OH] (H-R[PEG5]FRE([Sar-X1])F-OH; N-terminus assumed)
- Cat B-induced cleavage, in words: rapidly cleaved
- half-life at 10 μM [1]: 2.2 min
- Ratio (T1/2 Compound/T1/2 Reference): 0.19

Structure (SMILES): CC[C@@]1(OC(=O)NC[C@H](NC(=O)[C@H](CCCNC(=N)N)NC(=O)[C@H](Cc2ccccc2)NC(=O)CCOCCOCCOCCOCCOCCNC(=O)[C@@H](N)CCCNC(=N)N)C(=O)N[C@@H](Cc2ccccc2)C(=O)O)C(=O)OCc2c1cc1n(c2=O)Cc2cc3ccccc3nc2-1 [Compound 9, Arg-PEG4-Phe-Arg-Dap(CO-CPT)-Phe-OH] (H-R[PEG5]FR[Dap](Camptothecin(20S-OCO))F-OH; N-terminus assumed)
- half-life at 10 μM [1]: 4.5 min
- Ratio (T1/2 Compound/T1/2 Reference): 0.63

Structure (SMILES): CC[C@@]1(OC(=O)NCC[C@H](NC(=O)[C@H](CCCNC(=N)N)NC(=O)[C@H](Cc2ccccc2)NC(=O)CCOCCOCCOCCOCCOCCNC(=O)[C@@H](N)CCCNC(=N)N)C(=O)N[C@@H](Cc2ccccc2)C(=O)O)C(=O)OCc2c1cc1n(c2=O)Cc2cc3ccccc3nc2-1 [Compound 10, Arg-PEG4-Phe-Arg-Dab(CO-CPT)-Phe-OH] (H-R[PEG5]FR[Dab](Camptothecin(20S-OCO))F-OH; N-terminus assumed)
- half-life at 10 μM [1]: 0.9 min
- Ratio (T1/2 Compound/T1/2 Reference): 0.1

Structure (SMILES): CC[C@@]1(OC(=O)OC[C@H](NC(=O)[C@H](CCCNC(=N)N)NC(=O)[C@H](Cc2ccccc2)NC(=O)CCOCCOCCOCCOCCOCCNC(=O)[C@@H](N)CCCNC(=N)N)C(=O)N[C@@H](Cc2ccccc2)C(=O)O)C(=O)OCc2c1cc1n(c2=O)Cc2cc3ccccc3nc2-1 [Compound 11, Arg-PEG4-Phe-Arg-Ser(CO-CPT)-Phe-OH] (H-R[PEG5]FRS(Camptothecin(20S-OCO))F-OH; N-terminus assumed)
- half-life at 10 μM [1]: 2.2 min
- Ratio (T1/2 Compound/T1/2 Reference): 0.2

Structure (SMILES): COc1cc2cc(c1Cl)N(C)C(=O)C[C@H](OC(=O)[C@H](C)N(C)C(=O)CCSC1CC(=O)N(CCC(=O)NCCCC[C@H](NC(=O)[C@H](CCCCN)NC(=O)[C@H](Cc3ccccc3)NC(=O)CCOCCOCCOCCOCCNC(=O)CCN3C(=O)CC(SC[C@H](NC(C)=O)C(=O)O)C3=O)C(=O)N[C@@H](Cc3ccccc3)C(=O)O)C1=O)[C@]1(C)O[C@H]1[C@H](C)[C@@H]1C[C@@](O)(NC(=O)O1)[C@H](OC)/C=C/C=C(\C)C2 (stereo partly drawn) [Compound 12, Ac-Cys-Mal-PEG4-Phe-Lys-Lys(Mal-DM1)-Phe-OH] ({X2-PEG4}-FKK(DM1Mal(CH2)2CO)F-OH)
- half-life at 10 μM [1]: 1.5 min
- half-life at 10 μM [2]: 1.53 min

Structure (SMILES): CC[C@H](C)[C@@H]([C@@H](CC(=O)N1CCC[C@H]1[C@H](OC)[C@@H](C)C(=O)N[C@@H](Cc1ccccc1)C(=O)NCCCC[C@H](NC(=O)[C@H](CCCCN)NC(=O)[C@H](Cc1ccccc1)NC(=O)CCOCCOCCOCCOCCNC(=O)CCN1C(=O)CC(SC[C@H](NC(C)=O)C(=O)O)C1=O)C(=O)N[C@@H](Cc1ccccc1)C(=O)O)OC)N(C)C(=O)[C@@H](NC(=O)[C@H](C(C)C)N(C)C)C(C)C (stereo partly drawn) [Compound 13, Ac-Cys-Mal-PEG4-Phe-Lys-Lys(AF)-Phe-OH] (I: {X2-PEG4}-FKKF-OH / II: NMe2Val-V[Dil][Dolaproine]F; amide I:3-II:C)
- half-life at 10 μM [1]: 1.6 min
- half-life at 10 μM [2]: 1.62 min
- Ratio (T1/2 Compound/T1/2 Reference): 0.15

Structure (SMILES): CC[C@H](C)[C@@H]([C@@H](CC(=O)N1CCC[C@H]1[C@H](OC)[C@@H](C)C(=O)N[C@@H](Cc1ccccc1)C(=O)N[C@@H](CCCNC(N)=O)C(=O)N[C@@H](CCCCNC(=O)CCOCCOCCOCCOCCNC(=O)CCN1C(=O)CC(SC[C@H](NC(C)=O)C(=O)O)C1=O)C(=O)N[C@@H](Cc1ccccc1)C(=O)O)OC)N(C)C(=O)[C@@H](NC(=O)[C@H](C(C)C)N(C)C)C(C)C (stereo partly drawn) [Compound 19, AF-Cit-Lys(PEG4-Mal-Cys-Ac)-Phe-OH] (NMe2Val-V[Dil][Dolaproine]F[Cit]K([PEG4-X2])F-OH)
- half-life at 10 μM [1]: 1.1 min
- Ratio (T1/2 Compound/T1/2 Reference): 0.09

Structure (SMILES): COc1cc2cc(c1Cl)N(C)C(=O)C[C@H](OC(=O)[C@H](C)N(C)C(=O)CCSC1CC(=O)N(C[C@H]3CC[C@H](C(=O)NCCCC[C@H](NC(=O)[C@H](CCCNC(N)=O)NC(=O)[C@H](Cc4ccccc4)NC(=O)CCOCCOCCOCCOCCOCCNC(=O)CN4C(=O)CC(SC[C@H](NC(C)=O)C(=O)O)C4=O)C(=O)N[C@@H](Cc4ccc(O)cc4)C(=O)O)CC3)C1=O)[C@]1(C)O[C@H]1[C@H](C)[C@@H]1C[C@@](O)(NC(=O)O1)[C@H](OC)/C=C/C=C(\C)C2 (stereo partly drawn) [Compound 27, Ac-Cys-Ma-PEG5-Phe-Cit-Lys(Mcc-DM1)-Tyr-OH]
- half-life at 10 μM [1]: 0.06 min
- Ratio (T1/2 Compound/T1/2 Reference): 0.005
- cleavage rate compared to reference PABC compound (times faster): ~2300 fold

Structure (SMILES): COc1cc2cc(c1Cl)N(C)C(=O)C[C@H](OC(=O)[C@H](C)N(C)C(=O)CCSC1CC(=O)N(CCC(=O)NCCCC[C@H](NC(=O)[C@H](CCCCN)NC(=O)[C@H](Cc3ccccc3)NC(=O)CCOCCOCCOCCOCCNC(=O)CCN3C(=O)CC(SC[C@H](NC(C)=O)C(=O)O)C3=O)C(=O)N[C@@H](Cc3ccccc3)C(=O)N[C@@H](Cc3ccccc3)C(=O)N[C@@H](CCCCN)C(=O)O)C1=O)[C@]1(C)O[C@H]1[C@H](C)[C@@H]1C[C@@](O)(NC(=O)O1)[C@H](OC)/C=C/C=C(\C)C2 (stereo partly drawn) [Compound 28, Ac-Cys-Mal-PEG4-Phe-Lys-Lys(Mal-DM1)-Phe-Phe-Lys-OH] ({X2-PEG4}-FKK(DM1Mal(CH2)2CO)FFK-OH)
- half-life at 10 μM [3]: 0.3 min

Structure (SMILES): COc1cc2cc(c1Cl)N(C)C(=O)C[C@H](OC(=O)[C@H](C)N(C)C(=O)CCSC1CC(=O)N(CCC(=O)NCCCC[C@H](NC(=O)[C@H](CCCCN)NC(=O)[C@H](Cc3ccccc3)NC(=O)[C@H](Cc3ccccc3)NC(=O)[C@H](CCCCNC(=O)CCN3C(=O)CC(SCCC(=O)N(C)[C@@H](C)C(=O)O[C@H]4CC(=O)N(C)c5cc(cc(OC)c5Cl)C/C(C)=C/C=C/[C@@H](OC)[C@@]5(O)C[C@H](OC(=O)N5)[C@@H](C)[C@@H]5O[C@@]45C)C3=O)NC(=O)[C@H](CCCCN)NC(=O)[C@H](Cc3ccccc3)NC(=O)CCOCCOCCOCCOCCNC(=O)CCN3C(=O)CC(SC[C@H](NC(C)=O)C(=O)O)C3=O)C(=O)N[C@@H](Cc3ccccc3)C(=O)O)C1=O)[C@]1(C)O[C@H]1[C@H](C)[C@@H]1C[C@@](O)(NC(=O)O1)[C@H](OC)/C=C/C=C(\C)C2 (stereo partly drawn) [Compound 29, Ac-Cys-Mal-PEG4-[Phe-Lys-Lys(Mal-DM1)-Phe]2-OH] ({X2-PEG4}-FKK(DM1Mal(CH2)2CO)FFKK(DM1Mal(CH2)2CO)F-OH)
- half-life at 10 μM [3]: 2.4 min
- Ratio (T1/2 Compound/T1/2 Reference): 0.23
- cleavage rate compared to reference PABC compound (times faster): ~5 fold
